Test results: PMC3081663 (Journal of Natural Products, 2011)

What was measured:
[1] = system: phosphorylation of histone H2AX in HCT-15 cells; experiment: In-cell Western assay for phosphorylation of histone H2AX; format: cell-based; settings: 4 h of drug treatment
[2] = system: supercoiled plasmid DNA; experiment: In vitro DNA damage assay; format: biochemical
[3] = system: human colon carcinoma cell line LS174T; settings: LS174T subcutaneously implanted in nude mice; cited from earlier work
[4] = system: cell lines in which MDR1 was overexpressed; settings: MDR1 overexpressed by drug selection or transfection; cited from earlier work
[5] = system: panel of cell lines; experiment: Cytotoxicity in a panel of cell lines; format: cell-based
[6] = system: MDR1/MRP in HCT-15 cells; format: cell-based
[7] = system: MCF-7; settings: MCF7 cells, 72 h treatment
[8] = system: phosphorylation of histone H2AX in MCF7 cells; experiment: In-cell Western assay for phosphorylation of histone H2AX; format: cell-based; settings: 4 h
[9] = system: HCT-15

CC(C)(O)CCc1ccc(O)c2c(=O)c3c(O)c4c(cc3oc12)O[C@H]1OC=C[C@@]41O [austocystin D]
induction of phosphorylation of histone H2AX [1]: induced the phosphorylation of histone H2AX | requirement for increased nicked DNA ([2]; 1 μM austocystin D with different additives): only in the presence of both liver microsomes and the NADPH regenerating system | concentration causing direct DNA damage (nicking of supercoiled plasmid DNA) ([2]; human liver microsomes and NADPH regenerating system, 4 h, 37 °C): 100 nM | tumor growth in vivo [3]: inhibited the growth | fold more potent in cell lines in which MDR1 was overexpressed [4]: 20 fold | GI50 ([5]; 72 h, read-out: GI50 values for three cell lines): < 10 nM | selectivity between sensitive and resistant cell lines ([5]; 72 h cytotoxicity panel): over 1000 fold | inhibition of calcein-AM efflux (retention of calcein) [6]: inhibited efflux of calcein-AM

CC[C@@]1(O)C(=O)OCc2c1cc1n(c2=O)Cc2cc3ccccc3nc2-1 [camptothecin]
induction of phosphorylation of histone H2AX [1]: induced dose-dependent phosphorylation of histone H2AX

CC(C)(O)CCc1ccc(O)c2c(=O)c3c(O)c4c(cc3oc12)O[C@H]1OCC[C@@]41O [dihydro-austocystin D]
cytotoxicity (growth inhibition) [7]: very weak | induction of the DNA damage response (phosphorylation of histone H2AX) [8]: very weak

COc1cccc2c1C(=O)c1c(O)c3c(c(O)c1C2=O)C[C@@](O)(C(=O)CO)C[C@@H]3O[C@H]1C[C@H](N)[C@H](O)[C@H](C)O1 [doxorubicin]
induction of phosphorylation of histone H2AX [1]: induced dose-dependent phosphorylation of histone H2AX

CC(=O)N1CCN(c2ccc(OCC3COC(Cn4ccnc4)(c4ccc(Cl)cc4Cl)O3)cc2)CC1 (centres unmarked) [ketoconazole]
effect on austocystin D cytotoxicity [9]: fully prevented

bleomycin
induction of phosphorylation of histone H2AX [1]: induced dose-dependent phosphorylation of histone H2AX
